The ED50 is the dose that gives a 50% effect, or the effect in half of the subjects.

Here are results for 4 molecules from US4499099A, “Nortropane and granatane type compounds useful in treating psychosis” (Beecham Group p.l.c., priority 1981, dated 1985).

Counter-ions that a name gives are not always drawn.

The test has as its system post-synaptic Dopamine (D.A.) receptors. Put plainly: Inhibition of Apomorphine Induced Climbing in the Mouse. The format is in vivo. Particulars: male CD1 mice, apomorphine 1 mg/kg s.c., test compound administered subcutaneously 30 minutes prior to apomorphine (b213 says pre-treated orally), climbing scored at 10 and 20 minutes, read-out: ED50 (dose that produced a 50% inhibition of apomorphine-induced climbing). The protocol:
The results in the following table are on illustration of the anti-psychotic activity of the present compounds as shown by Inhibition of Apomorphine Induced Climbing in the Mouse, a standard test.
The test is based on that described by Protais, P., Constantin, J. and Schwartz J. C. (1976), Psychopharmacology, 50, 1-6.
When mice are given a dose of 1 mg/kg apomorphine and then placed in an enclosed environment, such as an inverted wire cage, they are seen to climb around the walls. This behavioural phenomenon is thought to be a consequence of the stimulation of post-synaptic Dopamine (D.A.) receptors in the nucleus accumbens. Inhibition of apomorphine induced climbing is therefore indicative of post-synaptic D.A. receptor blockade in the accumbens.
Groups of 10 male CD1 mice, weighing 25-30 g were pre-treated orally with either graded doses of the test compound or vehicle, at appropriate time intervals before the subcutaneous administration of a sub-maximal dose of apomorphine (1 mg/kg). Immediately after the apomorphine injection the mice were placed in wire `climbing cages` and each animal was scored for climbing behaviour at 10 and 20 minutes post apomorphine as follows:
Four paws on cage floor=0
The test compound was administered subcutaneously 30 minutes prior to administration of apomorphine.
The total score was calculated for each group of mice and expressed as a percentage inhibition of climbing. [formula]
ED50's and fiducial limits were calculated according to the method of Litchfield and Wilcoxon, the ED50 being the dose that produced a 50% inhibition of apomorphine--induced climbing.
As to `COc1cc(SC)cc(C(=O)N[C@@H]2C[C@H]3CC[C@@H](C2)N3Cc2ccccc2)c1OC` [Example 3, 2,3-Dimethoxy-5-methylthio-N[3β(8-benzyl-8-azabicyclo[3.2.1]octyl)]benzamide hydrochloride], the ED50 is 0.44 mg/kg.

Regarding `COc1cc(SC)cc(C(=O)N[C@@H]2C[C@H]3CCC[C@@H](C2)N3Cc2ccc(F)cc2)c1OC` [Example 4, 2,3-dimethoxy-5-methylthio-[N-(9-(4^1-fluorobenzyl)-9-azabicyclo(3.3.1)non-3β-yl)]benzamide], the ED50 was found to be 0.56 mg/kg.

Consider `COc1cc(N)c(SC)cc1C(=O)N[C@@H]1C[C@H]2CC[C@@H](C1)N2Cc1ccccc1` [Example 1, 4-Amino-2-methoxy-5-methylthio-N-[3-β-(8-benzyl-8-azabicyclo(3,2,1)octyl)]benzamide], for which the ED50 was 0.66 mg/kg.

With `COc1cc(N)c(SC)cc1C(=O)N[C@@H]1C[C@H]2CCC[C@@H](C1)N2Cc1ccc(F)cc1` [Example 2, 4-Amino-2-methoxy-5-methylthio-[N-(9-(4^1-fluorobenzyl)-9-azabicyclo(3.3.1)non-3β-yl)]benzamide], the ED50 came to 0.32 mg/kg.
